Molecular target: T1, CelD GH5 catalytic domain (construct 91–452) (Piromyces finnis, UniProt A0A1Y1V643)
T1 construct: gene BCR36DRAFT_398243; third GH5 catalytic domain of 136 kDa three-GH5, double-dockerin CelD; E. coli BL21-Gold(DE3), pMCSG68; N-terminal His/Strep tag cut by TEV for crystallisation; two molecules per asymmetric unit
Experiment: X-ray crystallography, co-crystal, […] Å
Format: binding
Details: inactive acid/base mutant; 10 mM cellotriose added; bound at -3, -2, -1 subsites of active site; 0.1 M sodium acetate, 24% PEG 6000, 16 °C

T1 sequence (A0A1Y1V643 entry or part of it E900A): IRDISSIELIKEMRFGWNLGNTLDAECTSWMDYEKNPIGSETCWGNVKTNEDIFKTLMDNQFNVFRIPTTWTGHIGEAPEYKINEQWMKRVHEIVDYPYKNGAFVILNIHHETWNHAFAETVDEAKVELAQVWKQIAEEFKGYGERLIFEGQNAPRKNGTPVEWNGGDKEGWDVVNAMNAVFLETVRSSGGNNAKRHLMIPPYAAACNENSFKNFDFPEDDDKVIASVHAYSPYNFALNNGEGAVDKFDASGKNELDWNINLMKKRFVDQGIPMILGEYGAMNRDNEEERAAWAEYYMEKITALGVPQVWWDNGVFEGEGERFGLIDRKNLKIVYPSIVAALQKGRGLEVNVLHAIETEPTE

SMILES: OC[C@H]1O[C@@H](O[C@H]2[C@H](O)[C@@H](O)[C@H](O[C@H]3[C@H](O)[C@@H](O)C(O)O[C@@H]3CO)O[C@@H]2CO)[C@H](O)[C@@H](O)[C@@H]1O (stereo partly shown) [cellotriose]
- X-ray crystallography, co-crystal, 1.8 Å: The complex between the E154A mutant protein and cellotriose was formed by adding the ligand

From article PMC10485095, “Structure and enzymatic characterization of CelD endoglucanase from the anaerobic fungus Piromyces finnis” (Applied Microbiology and Biotechnology, 2023)
